Experiments:
[1] = Panel test of lowering iron taste and/or smell of aqueous bivalent iron ion solution; design: key to Effect on lowering iron taste and/or smell: “Not effective (symbol “−”)” meaning of that the test aqueous solution showed no difference in iron taste and/or smell from that the control aqueous solution; “Slightly effective (symbol “+”)”, the test aqueous solution showes weaker iron taste and/or smell than the control aqueous solution but the deference was not significant; “Effective (symbol “++”)”, the test aqueous solution showed a slight iron taste and/or smell but it was significantly weaker than that of the control aqueous solution; “Strongly effective (symbol “+++”)”, the test aqueous solution showed almost no iron taste and/or smell; settings: for Effect on lowering iron taste and/or smell: 5 mg bivalent iron per 100 ml, 12 panels
Description: To confirm the effect of various saccharides on inhibiting taste and/or smell of bivalent iron ion, the following experiment was carried out. An aqueous solution containing bivalent iron ion was prepared by dissolving 0.05556 part by weight of ammonium ferric citrate (iron content of about 18%), and 0.1 part by weight of ascorbic acid in 100 parts by weight of deionized water. Test aqueous solutions containing 5 mg of bivalent iron per 100 ml of water and 0.5, 1.0, 1.5, 2.0 or 5.0% of saccharide selected from sucrose, maltose (hydrous crystalline maltose commercialized by Hayashibara Biochemical Laboratories, Inc., Okayama, Japan, purify 99.0% or more), α,α-trehalose (hydrous crystalline α,α-trehalose commercialized by Hayashibara Biochemical Laboratories, Inc., Okayama, Japan, purity 99.0% or more), α-glucosyl α,α-trehalose (hydrous crystalline α-glucosyl α,α-trehalose prepared in Experiment B-1 of Japanese Patent Publication (Kokai) No. 291,986/1995, purity 99.0% or more), and […] (powdery α-maltosyl α,α-trehalose prepared in Example 5 described following, purity 98.1%) were prepared by admixing the above aqueous solution containing bivalent iron with an equal volume of a pre-prepared aqueous solution containing any one of the above saccharides at a concentration of 1.0, 2.0, 3.0, 4.0 or 10.0%, on a dry solid basis. As a control, an aqueous solution was prepared by admixing the aqueous solution containing bivalent iron ion with an equal volume of warter instead of the aqueous saccharide solution.
The effect on lowering iron taste and/or smell, namely unpleasant taste and/or smell of iron ion existing in a test aqueous solution at a concentration of 5 mg per 100 ml was judged by a panel test using 12 panels. […] In the judgement for each test aqueous solution, ten or more of 12 panels answered the same judgement.

[2] = Inhibiting the production of hydrogen sulfide from L-cysteine due to heat-decomposition; settings: 2.5 g L-cysteine hydrochloride and 5 g saccharide in 50 ml; 80° C. for 15 minutes; 100 minus relative value, control defined as 100
Source text: Two and half grams of precisely weighted L-cysteine hydrochloride (special reagent grade) and on a dry solid basis 5 g of a precisely measured saccharide sample; i.e. hydrous crystalline α,α-trehalose (reagent grade, purity 99.0% or more, commercialized by Hayashibara Biochemical Laboratories, Inc., Okayama, Japan), α-maltosyl α,α-trehalose prepared in the following Example 5 (purity 98.1%), or a reagent grade maltotetraose (purity 97.0% or more, commercialized by Hayashibara Biochemical Laboratories, Inc., Okayama, Japan); were placed in a 50-ml volume measuring flask and dissolved in deionized water to give a final volume of 50 ml. As a control, 2.5 g of precisely measured L-cysteine hydrochloride (special reagent grade) was dissolved in deionized water to give a final volume of 50 ml. Five ml of each sample was place into a 20-ml volume vial, sealed with a butyl gum cap, and kept at 80° C. for 15 minutes in an incubator. Hydrogen sulfide contained in 10 ml of the resulting headspace gas was measured by “GASTECH No. 4 LT”, a hydrogen sulfide detector commercialized by GL Science Corporation, under an aspiration time of one minute. The resulting value of the production of hydrogen sulfide of each test sample was compared with the value of control defined as 100 to calculate the relative value of the production of hydrogen sulfide. And then, the relative rate of inhibiting the production of hydrogen sulfide was calculated by 100 minus the relative value.

[3] = Water solubility and hygroscopicity of the agents; assay type: physicochemical

| Compound | Effect on lowering iron taste and/or smell ([1]; saccharide 0.5%) | Effect on lowering iron taste and/or smell ([1]; saccharide 1.0%) | Effect on lowering iron taste and/or smell ([1]; saccharide 1.5%) | Effect on lowering iron taste and/or smell ([1]; saccharide 2.0%) | Effect on lowering iron taste and/or smell ([1]; saccharide 5.0%) | Relative rate of inhibiting the production of hydrogen sulfide [2] | Hygroscopicity [3] | Solubility in water [3] | Concentration effective on lowering unpleasant taste and/or smell of aqueous iron ion solution ([1]; to the total weight of the aqueous solution, dry solid basis) [%] |
| --- | --- | --- | --- | --- | --- | --- | --- | --- | --- |
| OC[C@H]1O[C@H](O[C@H]2O[C@H](CO)[C@@H](O[C@H]3O[C@H](CO)[C@@H](O[C@H]4O[C@H](CO)[C@@H](O)[C@H](O)[C@H]4O)[C@H](O)[C@H]3O)[C@H](O)[C@H]2O)[C@H](O)[C@@H](O)[C@@H]1O [α-Maltosyl α,α-trehalose, α-maltosyl α,α-trehalose] | − | + | ++ | ++ | +++ | 36 | low hygroscopicity | satisfactory solubility in water |  |
| OC[C@H]1O[C@H](O[C@H]2O[C@H](CO)[C@@H](O[C@H]3O[C@H](CO)[C@@H](O)[C@H](O)[C@H]3O)[C@H](O)[C@H]2O)[C@H](O)[C@@H](O)[C@@H]1O [α-Glucosyl α,α-trehalose, α-glucosyl α,α-trehalose] | − | + | ++ | ++ | +++ |  |  |  |  |
| OC[C@H]1O[C@H](O[C@H]2[C@H](O)[C@@H](O)[C@@H](O[C@H]3[C@H](O)[C@@H](O)[C@@H](O[C@H]4[C@H](O)[C@@H](O)C(O)O[C@@H]4CO)O[C@@H]3CO)O[C@@H]2CO)[C@H](O)[C@@H](O)[C@@H]1O (some centres unmarked) [Maltotetraose, maltotetraose] |  |  |  |  |  | 12 |  |  |  |
| OC[C@H]1O[C@H](O[C@H]2[C@H](O)[C@@H](O)C(O)O[C@@H]2CO)[C@H](O)[C@@H](O)[C@@H]1O (mixture of isomers) [Maltose, maltose] | − | − | − | + | + |  |  |  | ≥ 2 |

— US20060134197A1, “Method of reducing unpleasant taste and/or unpleasant odor” (priority 2002, published 2006)
